Article PMC11232398, “Antimalarial activity of cecropin antimicrobial peptides derived from Anopheles mosquitoes” (Antimicrobial Agents and Chemotherapy, 2024)
Read-outs that look alike come from different tables or passages of the source.

Legend:
[1] = tested on: P. falciparum 3D7 (sensitive strain); assay: In vitro antimalarial activity, 3-day inhibition assay; format: cell-based, Plasmodium falciparum
Method: Blood stages of the laboratory clones P. falciparum 3D7 (sensitive strain), P. falciparum 803 (artemisinin-resistant strain), and P. falciparum Dd2 (chloroquine-resistant strain) were cultured in vitro according to the method of Trager and Jensens with minor modifications ([37]). Briefly, cultures were maintained in O-positive human erythrocytes (RBCs) as host cells at 2% hematocrit and maintained in complete medium (CM) [RPMI-1640 culture medium supplemented with NaHCO3 (2 mg/mL), hypoxanthine (50 µg/mL), HEPES (5.96 mg/mL), albumax II (1%), and gentamicin (40 µg/mL)]. The cultures were diluted to 1% parasitemia and 2% hematocrit in CM and incubated in a humidified atmosphere with 5% O2, 5% CO2, and 90% N2 at 37°C. Prior to experiments, the cultures were highly synchronized for ring stages using 5% sorbitol twice at a 40-h interval. Briefly, ring stage cultures were centrifuged and the pellet was washed once in incomplete medium (ICM, RPMI-1640 without addition). Then, the pellet was resuspended in 5% sorbitol and incubated at 37°C for 10 min. After incubation, the suspension was centrifuged and the pellet was washed once and resuspended in medium. The development of the parasite was observed using light microscopy, and parasitemia was determined by counting at least 10,000 RBCs on Giemsa’s solution-stained thin blood smears.
Highly synchronous ring stage parasites were used to investigate the in vitro antimalarial activity of the peptides. For preliminary screening of in vitro antimalarial activity, a 3-day inhibition assay was used to test the antimalarial activity of An-cecA, An-cecB, and An-cecC. […] For IC50 assay, a series of concentrations of peptides were added to the parasite culture. The concentrations of An-cecB were 5, 15, 20, 25, 30, 35, and 40 µM, while those of An-cecB-1 were 20, 30, 40, 50, 60, 70, 80, and 90 µM. After 72 hours of incubation, the antimalarial effects of peptides were estimated. Thin blood films stained with Giemsa’s solution were counted under a microscope. The parasitemia of cultures treated with peptides was compared with that of control. IC50 was calculated by GraphPad Prism.

[2] = tested on: Plasmodium falciparum 3D7; assay: Transmission electron microscope analysis of parasite morphology; format: cell-based; conditions: TEM
Method: 3D7 strain parasites with parasitemia of 3% ~ 5% at a hematocrit of 2% were planted in 12-well plates, 3 mL/well. A 40-µM concentration of An-cecB or 200 µM An-cecB-1 was added and incubated for 30 min or 60 min. PBS was used as a control.
After incubation, the parasites were washed three times with ICM, and the electron microscope fixative solution (provided by the company) was added to keep the parasites clumped for 2 hours at room temperature. Finally, the samples were sent to a commercial company at 4°C for transmission electron microscope analysis.

[3] = tested on: methyl-β-cyclodextrin-treated RBCs; assay: Hemolytic activity on cholesterol-depleted erythrocytes; format: cell-based, human; conditions: RBCs treated with 7.5 mM methyl-β-cyclodextrin for 2 hours at 37°C
From the text: Cholesterol is the main component of the RBC membrane and is important for maintaining its stability ([39]). Plasmodium falciparum infection efficiently depletes the red blood cells of cholesterol, which renders […] membranes susceptible to lysis ([40]). Therefore, methyl-β-cyclodextrin treatment was used to simulate the RBC cholesterol depletion caused by infection with Plasmodium. RBCs were washed once and then resuspended with PBS at 0.5% hematocrit. After treatment with the indicated concentration (7.5 mM) of methyl-β-cyclodextrin (Sigma) in RPMI for 2 hours at 37°C, the treated RBCs were washed with PBS and hemolysis assays were performed as described above. Two independent tests with five technical replicates were performed for each hemolysis assay.

[4] = tested on: RBCs infected by schizonts of P. falciparum 3D7; assay: Hemolytic activity on RBCs infected by schizonts; format: cell-based, human; conditions: percoll-purified 3D7 schizonts, 2% hematocrit in PBS
Method: To test the hemolytic activity of the peptides against RBCs infected by Plasmodium, schizonts of the P. falciparum 3D7 strain were collected. The parasite culture of mainly schizonts was centrifuged and resuspended to 50% hematocrit. Then, the resuspended culture was carefully laid on top of the gradient with 3 mL 70% and 3 mL 40% percoll-sorbitol solution. After centrifugation at 2,300 × g for 20 min at 20°C, schizonts from the 40/70% interface were collected and washed twice with 10× volume of ICM. The collected parasites were resuspended in PBS to 2% hematocrit for hemolysis assay as described above.

[5] = tested on: Escherichia coli (ATCC 25922); assay: Antimicrobial assay, broth dilution; format: cell-based; conditions: E. coli
Method: (§1) Gram-positive bacteria S. aureus, B. subtilis, and Gram-negative E. coli were used in antimicrobial assays. Bacteria were first grown in LB (Luria-Bertani) broth to an absorbance of 0.8 at 600 nm. The antibacterial behavior of the peptides was studied via the agar disc diffusion assay and broth microdilution method ([41], [42]). The agar plates were made by pouring 20 mL of LB broth containing 1.5% agar into 60-mm Petri dishes. Then, a 100-µL bacterial suspension (10^6 CFU/mL) was spread over the LB agar plate. Ten microliters of the 2-mg/mL peptide sample was carefully dropped onto sterile 2-mm diameter paper discs that had been previously attached to the plate. The plates were carefully placed in an incubator at 37°C for 24 hours. If an examined sample had antimicrobial activity, a clear zone was observed around the filter paper representing inhibition of bacterial growth. The MIC was determined by the broth dilution method, and the absorbance value was measured at an optical density at 600 nm (OD600) to determine the inhibition rate of peptides at different concentrations against each bacteria. Then, the MIC at which no visible growth occurred was recorded ([38]). The MIC50 was calculated by GraphPad Prism.

Bacillus subtilis (ATCC) = assay: Antimicrobial assay, broth dilution; format: cell-based; conditions: B. subtilis
Method: as §1

[6] = tested on: Staphylococcus aureus (ATCC 6538); assay: Antimicrobial assay, broth dilution; format: cell-based; conditions: S. aureus
Method: as §1

[7] = tested on: Plasmodium berghei (ANKA); format: in vivo; conditions: parasitemia on day 4, BALB/c mice
Method: The in vivo antimalarial activity of peptides was evaluated using a 4-day suppressive test in P. berghei-infected mouse model mice ([44]). The mice were divided into five groups of six mice. Donor mice were infected with 200 µL of P. berghei parasite inoculum by intraperitoneal injection. Parasitized blood was collected from the tail vein of donor mice and diluted with 0.9% sodium chloride solution. Mice were then infected with saline suspension of 1 × 10^7 parasitized erythrocytes (0.2 mL) by intraperitoneal injection (Day0). Four hours after infection, each of the three groups of mice was treated with peptide by intraperitoneal injection at daily doses of 10, 25, and 50 mg/kg for 4 consecutive days. Positive control mice were treated with chloroquine at daily doses of 10 mg/kg and negative control mice with normal saline. On day 4 (96 hours post infection), the parasitemia of each mouse was determined under a light microscope by examination of Giemsa’s solution-stained thin blood smears prepared from mouse tail blood ([28]). The mean parasitemia in each group of mice was used to calculate the % suppression for each dose using the following formula:
%suppression = (parasitemia of negative control − parasitemia of test) * 100/parasitemia of negative control.
The antimalarial activity of the peptides was determined from the ratio of the percentage of parasite reduction in treated and negative control groups ([44]). Results were expressed as median (range) values.

[8] = 50 µM peptide, 72 h, ring stage, 1% parasitemia, 2% hematocrit, Giemsa smears
[9] = 200 µM peptide, 3D7, Giemsa smears
[10] = 40 µM An-cecB or 200 µM An-cecB-1, total 20 / 22

Method for HEK293T cells: The mammalian cell lines HepG2 and HEK293T were used for cytotoxicity tests. The cells were cultured in Dulbecco’s modified Eagle medium supplemented with 10% fetal bovine serum and 1% penicillin/streptomycin in an incubator at 37°C with 5% CO2. Cells were seeded at a density of 1 × 10^5 cells/mL per well into a 96-well plate overnight and treated with different concentrations of peptides for 48 hours. To analyze the CC50 of peptides, a series of concentrations of peptides (0, 5, 10, 20, 30, 40, 50, 60, and 70 µM) were set to detect their cytotoxic concentrations. Then, 10% CCK-8 solution was added into each well and incubated for another 2 hours. The absorbance was monitored by a microplate reader at 450 nm. PBS was used as a negative control and the inhibition of each drug was normalized to that of the PBS control. CC50 was calculated by GraphPad Prism. Two independent assays with three technical replicates each time were conducted.

Substance “RRFKKFLKKVEGAGRRVANAA QKGLPLAAGVKGL-NH2 [An-cecC]” has an inhibition rate [1, 8] of 40.16%.

For “RAAKKALPVIAGYKAL-NH2 [An-cecB-2, truncated peptide of An-cecB, posterior part]”, the “cytotoxicity to HEK293T cells” value (HEK293T cells) was “No cytotoxicity” and the inhibition rate [1, 9] was 12.14%.

With “APRWKFGKRLEKLGRNVF-NH2 [An-cecB-1, truncated peptide of An-cecB, anterior part]” the “Normal (number of parasites)” value ([2]; 40 µM An-cecB or 200 µM An-cecB-1, 30 or 60 min, total 20 (An-cecB), 22 (An-cecB-1)) was 7, the “Disintegration (number of parasites)” value [2, 10] was 0 and the “Parasite disoriented (number of parasites)” value [2, 10] was 0. For the same substance, the “Parasite membrane dissolution (number of parasites)” value [2, 10] was 2, the “Parasite shrunken (number of parasites)” value [2, 10] was 15 and the “Vacuole formation (number of parasites)” value [2, 10] was 7. The “cytotoxicity to HEK293T cells” value (HEK293T cells) was “No cytotoxicity”, the inhibition rate [1, 9] was 83.67% and the IC50 ([1]; 3D7, 72 h incubation, Giemsa smears, GraphPad Prism, two independent assays, three technical replicates) was 68.6 µM. For the same substance, the “hemolysis of cholesterol-depleted erythrocytes” value [3] was “no hemolysis effect”, the “hemolytic activity to infected erythrocytes” value [4] was “did not” and the MIC ([5]; OD600) was 25 µM. It also gave an MIC50 ([5]; OD600, GraphPad Prism) of 12.7 µM, an MIC (Bacillus subtilis (ATCC); OD600) of 25 µM and an MIC50 (Bacillus subtilis (ATCC); OD600, GraphPad Prism) of 18.94 µM. The MIC ([6]; OD600) was greater than 200 µM, the MIC50 ([6]; OD600, GraphPad Prism) was greater than 200 µM and the “Inhibition (%) of P. berghei growth” value ([7]; 10 mg/kg daily i.p. for 4 consecutive days) was 17.03%. The “Inhibition (%) of P. berghei growth” value ([7]; 25 mg/kg daily i.p. for 4 consecutive days) was 39.35% and the “Inhibition (%) of P. berghei growth” value ([7]; 50 mg/kg daily i.p. for 4 consecutive days) was 54.19%.

“GRLKKLGKKIEGAGKRVFKAA EKALPVVAGVKAL-NH2 [An-cecA]” showed an inhibition rate [1, 8] of 18.7%.

For “GKRLEKLGRNVFRAAKK-NH2 [An-cecB-3, truncated peptide of An-cecB, middle part]”, the “cytotoxicity to HEK293T cells” value (HEK293T cells) was “No cytotoxicity” and the inhibition rate [1, 9] was 24.74%.
